According to patent publication US20190060371A1, “METHODS FOR CONTROLLED PROLIFERATION OF VESTIBULAR STEM CELLS / GENERATING INNER EAR HAIR CELLS USING WNT AND TGFBETA-INHIBITION” (Frequency Therapeutics, Inc., priority 2016, published 2019):
“Also recorded” adds a separate entry of the source.

Key:
[1] = system: supporting cell/stem cell; test: Expansion of Sox2 and Sox9 positive cells from vestibular organs in 3D Matrigel culture; format: cell-based, neonatal mice; conditions: for colony size compared to Wnt agonism alone (FIG. 5): TGF-beta inhibitor added to CHIR99021 in a background of GF; for cell growth when added to Wnt agonism (C) (total cells, FIG. 2): added to GF+C (CHIR99021), D10
Method: Isolation of stem cells from the inner ear: All animal studies were conducted under an approved institutional protocol according to National Institutes of Health guidelines. For experiments with neonatal mice (postnatal days 1-3), the vestibular organs were dissected in HBSS. The vestibular organs were then treated with TrypLE (Life Technologies) for 15-20 minutes at […]. Single cells obtained by mechanical trituration were filtered (40 μm) and suspended in Matrigel (Corning) for 3D culture. Cells were cultured in a 1:1 mixture of DMEM and F12, supplemented with Glutamax (GIBCO), N2, B27 (Invitrogen), EGF (50 ng/mL; Chemicon), bFGF (50 ng/mL; Chemicon), IGF1 (50 ng/mL; Chemicon) and a composition comprising the following agents: CHIR99021 (a Wnt activator), 616452 (a TGF-beta inhibitor), Noggin (a BMP4 inhibitor), VPA (HDAC inhibitor), and combinations there. Media were changed every other day. Total cells were quantified after 10 days (D10) in culture in multiple conditions. (i) GF; ([…]6); wherein On D10, cell colonies were dissociated into single cells using TrypLE (Gibco). The cells were then stained with propidium iodide (PI) and analyzed using a flow cytometer expression. The number of cells were quantified. […] Also on D10, cells were stained with Sox2 (data not shown), as well as Sox9, Rhodamine Phalloidin (stains F-actin), and DAPI (nuclear stain) (see FIG. 3) to assess the identity of the cell populations. Colonies were visualized using confocal microscopy. Sox2 and Sox9 are stem cell markers in the balance organs.

[2] = system: progenitor colonies; test: Differentiation of Sox2 and Sox9 progenitor cell colonies into hair cells; format: cell-based, neonatal mice; conditions: gamma secretase inhibition; confocal images
Method: Isolation of stem cells from the inner ear: All animal studies were conducted under an approved institutional protocol according to National Institutes of Health guidelines. For experiments with neonatal mice (postnatal days 1-3), the vestibular organs were dissected in HBSS. The vestibular organs were then treated with TrypLE (Life Technologies) for 15-20 minutes at […]. Single cells obtained by mechanical trituration were filtered (40 μm) and suspended in Matrigel (Corning) for 3D culture.
Differentiation of Sox2 and Sox9 Progenitor Cells Stem cell colonies were differentiated in a 1:1 mixture of DMEM and F12, supplemented with Glutamax (GIBCO), N2, B27 (Invitrogen), with the addition of molecules that drive differentiation, or after removal of growth factors without the addition of molecules that drive differentiation. Small molecules were added to the culture to test their effect on differentiation.
Indicative of hair cells, the cells express Myo VIIa (green) and have actin hair bundles (red).

| Structure (SMILES) | colony size compared to Wnt agonism alone (FIG. 5) [1] | cell growth when added to Wnt agonism (C) (total cells, FIG. 2) ([1]; flow cytometer) | further results |
| --- | --- | --- | --- |
| Cc1cccc(-c2nn(C(=S)Nc3ccccc3)cc2-c2ccnc3ccccc23)n1 [Compound A-83-01, 3-(6-Methylpyridin-2-yl)-4-(4-quinolyl)-1-phenylthiocarbamoyl-1H-pyrazole] | larger colonies | – | colony size compared to Wnt agonism alone (FIG. 5) ([1]; listed as A 83-01): larger supporting cell/stem cell colonies |
| C[C@H](NC(=O)[C@@H](O)c1cc(F)cc(F)c1)C(=O)N[C@@H]1C(=O)N(C)c2ccccc2-c2ccccc21 [LY411575] | – | – | conversion of colonies into hair cells (Myosin VIIA, actin hair bundles; FIG. 4) [2]: differentiated into high purity populations of hair cells; also recorded: converted into high purity hair cell populations |
| CCCC(CCC)C(=O)O [VPA, valproic acid] | – | inhibited cell growth | – |
| Cc1cccc(-c2n[nH]cc2-c2ccc3ncccc3n2)n1 [Compound 616452, 2-(3-(6-Methylpyridin-2-yl)-1H-pyrazol-4-yl)-1,5-naphthyridine] | – | improved stem cell growth | – |
| Cc1c[nH]c(-c2cnc(NCCNc3ccc(C#N)cn3)nc2-c2ccc(Cl)cc2Cl)n1 [CHIR99021] | – | – | supporting cell/stem cell growth (total cells, FIG. 2) ([1]; added to GF (EGF, FGF, IGF), 10 days (D10), flow cytometer): promoted supporting cell/stem cell growth; supporting cell/stem cell growth and colony formation (FIG. 5) ([1]; in a background of GF): promoted supporting cell/stem cell growth and colony formation |
| NC(=O)c1ccc(-c2nc(-c3ccc4c(c3)OCO4)c(-c3ccccn3)[nH]2)cc1 [SB-431542, 4-[4-(1,3-Benzodioxol-5-yl)-5-(2-pyridinyl)-1H-imidazol-2-yl]-benzamide] | larger supporting cell/stem cell colonies | – | – |
